Laboratory results as given in patent US8053553B2, “Targeting host proteinases as a therapeutic strategy against viral and bacterial pathogens” (Socpra Sciences Sante Et Humaines, priority 2007, dated 2011).
Non-standard residues stand in square brackets, D forms with d. Residues, ends and D or L forms follow the SMILES beside them. Sar = CNCC(=O)O

target: T1, furin (Homo sapiens, UniProt P09958); experiment: biochemical; settings: furin, Pyr-RTKR-AMC substrate; alanine scanning mutagenesis of the H5 furin cleavage sequence (Table 2); read-out: Ki
T1 construct: made in house; host or cells: Drosophila S2 cells (Invitrogen expression system)
T1 sequence (P09958 108-794 limits assumed): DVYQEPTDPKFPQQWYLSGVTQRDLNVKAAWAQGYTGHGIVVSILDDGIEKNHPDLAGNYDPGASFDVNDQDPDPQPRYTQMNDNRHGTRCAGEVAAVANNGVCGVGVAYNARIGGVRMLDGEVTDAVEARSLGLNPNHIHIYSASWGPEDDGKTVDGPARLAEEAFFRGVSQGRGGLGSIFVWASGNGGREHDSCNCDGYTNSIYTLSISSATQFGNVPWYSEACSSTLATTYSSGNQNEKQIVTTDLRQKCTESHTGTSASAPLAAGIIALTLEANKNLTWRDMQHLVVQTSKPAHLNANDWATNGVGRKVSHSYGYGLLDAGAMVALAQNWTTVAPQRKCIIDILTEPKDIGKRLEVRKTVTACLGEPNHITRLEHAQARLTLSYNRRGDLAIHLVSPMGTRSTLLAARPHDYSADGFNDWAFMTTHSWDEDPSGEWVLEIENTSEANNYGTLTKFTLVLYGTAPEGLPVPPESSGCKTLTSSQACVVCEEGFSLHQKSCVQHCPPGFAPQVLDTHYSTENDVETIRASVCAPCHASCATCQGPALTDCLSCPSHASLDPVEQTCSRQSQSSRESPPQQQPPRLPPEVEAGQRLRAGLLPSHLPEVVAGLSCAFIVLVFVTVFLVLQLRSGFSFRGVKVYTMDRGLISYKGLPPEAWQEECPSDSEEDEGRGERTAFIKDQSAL

Question: How did the Ki turn out when `C[C@H](NC(=O)[C@H](C)NC(=O)[C@H](CCC(=O)O)NC(=O)[C@H](CCCNC(=N)N)NC(=O)[C@@H]1CCCN1C(=O)[C@@H](N)[C@@H](C)O)C(=O)N[C@@H](C)C(=O)N[C@@H](CCCCN)C(=O)N[C@@H](CCCCN)C(=O)N[C@@H](CCCNC(=N)N)C(=O)NCC(N)=O` (H-TPREAAAKKRG-NH2) was run?
Answer: > 100 nM

Question: Which Ki does the source give for `CC(C)[C@H](NC(=O)[C@H](CCCNC(=N)N)NC(=O)[C@H](CCCCN)NC(=O)[C@H](CCCCN)NC(=O)[C@H](C)NC(=O)[C@H](C)NC(=O)[C@H](C)NC(=O)[C@H](CCC(=O)O)NC(=O)[C@H](CCCNC(=N)N)NC(=O)[C@@H]1CCCN1C(=O)[C@@H](N)[C@@H](C)O)C(N)=O` (H-TPREAAAKKRV-NH2) here?
Answer: > 100 nM

Question: How did the Ki turn out when `C[C@H](NC(=O)[C@H](C)NC(=O)[C@H](CCC(=O)O)NC(=O)[C@H](CCCNC(=N)N)NC(=O)[C@@H]1CCCN1C(=O)[C@@H](N)[C@@H](C)O)C(=O)N[C@@H](C)C(=O)N[C@@H](CCCCN)C(=O)N[C@@H](CCCCN)C(=O)N[C@@H](CCCNC(=N)N)C(=O)N(C)CC(N)=O` (H-TPREAAAKKR[Sar]-NH2) was run?
Answer: > 100 nM

Question: For `C[C@H](NC(=O)[C@H](C)NC(=O)[C@H](CCC(=O)O)NC(=O)[C@H](CCCNC(=N)N)NC(=O)[C@@H]1CCCN1C(=O)[C@@H](N)[C@@H](C)O)C(=O)N[C@@H](CCCNC(=N)N)C(=O)N[C@@H](CCCCN)C(=O)N[C@@H](CCCCN)C(=O)N[C@@H](CCCNC(=N)N)C(N)=O` (H-TPREAARKKR-NH2), which Ki is on record?
Answer: > 100 nM

Question: Which Ki does the source give for `C[C@H](NC(=O)[C@H](C)NC(=O)[C@H](CCC(=O)O)NC(=O)[C@H](CCCNC(=N)N)NC(=O)[C@@H]1CCCN1C(=O)[C@@H](N)[C@@H](C)O)C(=O)N[C@@H](CCCNC(=N)N)C(=O)N[C@@H](CCCCN)C(=O)N[C@@H](CCCCN)C(=O)N[C@@H](CCCNC(=N)N)C(=O)NCC(N)=O` (H-TPREAARKKRG-NH2) here?
Answer: > 100 nM

Question: Which Ki does the source give for `CC(C)[C@H](NC(=O)[C@H](CCCNC(=N)N)NC(=O)[C@H](CCCCN)NC(=O)[C@H](CCCCN)NC(=O)[C@H](CCCNC(=N)N)NC(=O)[C@H](C)NC(=O)[C@H](C)NC(=O)[C@H](CCC(=O)O)NC(=O)[C@H](CCCNC(=N)N)NC(=O)[C@@H]1CCCN1C(=O)[C@@H](N)[C@@H](C)O)C(N)=O` (H-TPREAARKKRV-NH2) here?
Answer: > 100 nM

Question: How did the Ki turn out when `C[C@H](NC(=O)[C@H](C)NC(=O)[C@H](CCC(=O)O)NC(=O)[C@H](CCCNC(=N)N)NC(=O)[C@@H]1CCCN1C(=O)[C@@H](N)[C@@H](C)O)C(=O)N[C@@H](CCCNC(=N)N)C(=O)N[C@@H](CCCCN)C(=O)N[C@@H](CCCCN)C(=O)N[C@@H](CCCNC(=N)N)C(=O)N(C)CC(N)=O` (H-TPREAARKKR[Sar]-NH2) was run?
Answer: > 100 nM

Question: How did the Ki turn out when `C[C@H](NC(=O)[C@H](CCC(=O)O)NC(=O)[C@H](CCCNC(=N)N)NC(=O)[C@@H]1CCCN1C(=O)[C@@H](N)[C@@H](C)O)C(=O)N[C@@H](CCCNC(=N)N)C(=O)N[C@@H](CCCNC(=N)N)C(=O)N[C@@H](CCCCN)C(=O)N[C@@H](CCCCN)C(=O)N[C@@H](CCCNC(=N)N)C(N)=O` (H-TPREARRKKR-NH2) was run?
Answer: > 100 nM

Question: For `CC(C)[C@H](NC(=O)[C@H](CCCNC(=N)N)NC(=O)[C@H](CCCCN)NC(=O)[C@H](CCCCN)NC(=O)[C@H](CCCNC(=N)N)NC(=O)[C@H](CCCNC(=N)N)NC(=O)[C@H](C)NC(=O)[C@H](CCC(=O)O)NC(=O)[C@H](CCCNC(=N)N)NC(=O)[C@@H]1CCCN1C(=O)[C@@H](N)[C@@H](C)O)C(N)=O` (H-TPREARRKKRV-NH2), which Ki is on record?
Answer: > 100 nM

Question: `C[C@H](NC(=O)[C@H](CCC(=O)O)NC(=O)[C@H](CCCNC(=N)N)NC(=O)[C@@H]1CCCN1C(=O)[C@@H](N)[C@@H](C)O)C(=O)N[C@@H](CCCNC(=N)N)C(=O)N[C@@H](CCCNC(=N)N)C(=O)N[C@@H](CCCCN)C(=O)N[C@@H](CCCCN)C(=O)N[C@@H](CCCNC(=N)N)C(=O)N(C)CC(N)=O` (H-TPREARRKKR[Sar]-NH2) was tested. Which Ki did it give?
Answer: > 100 nM

Question: `C[C@H](NC(=O)[C@H](C)NC(=O)[C@H](CCCNC(=N)N)NC(=O)[C@H](CCC(=O)O)NC(=O)[C@H](CCCNC(=N)N)NC(=O)[C@@H]1CCCN1C(=O)[C@@H](N)[C@@H](C)O)C(=O)N[C@@H](CCCCN)C(=O)N[C@@H](CCCCN)C(=O)N[C@@H](CCCNC(=N)N)C(N)=O` (H-TPRERAAKKR-NH2) was tested. Which Ki did it give?
Answer: > 100 nM
